According to article PMC6272887, “Discovery of Potent c-MET Inhibitors with New Scaffold Having Different Quinazoline, Pyridine and Tetrahydro-Pyridothienopyrimidine Headgroups” (Molecules, 2016):

Key:
[1] = target: T1, c-Kit (Homo sapiens, UniProt P10721); assay: In vitro kinase assay (HTScan c-Kit Kinase Assay Kit); assay type: biochemical; conditions: for IC50: ATP 10 µM, read-out: Enzyme, IC50, µM c-Kit; for selectivity against c-Kit: relative to c-MET
T1 construct: purchased Cell Signaling Technology, Inc
T1 sequence (P10721 26-976): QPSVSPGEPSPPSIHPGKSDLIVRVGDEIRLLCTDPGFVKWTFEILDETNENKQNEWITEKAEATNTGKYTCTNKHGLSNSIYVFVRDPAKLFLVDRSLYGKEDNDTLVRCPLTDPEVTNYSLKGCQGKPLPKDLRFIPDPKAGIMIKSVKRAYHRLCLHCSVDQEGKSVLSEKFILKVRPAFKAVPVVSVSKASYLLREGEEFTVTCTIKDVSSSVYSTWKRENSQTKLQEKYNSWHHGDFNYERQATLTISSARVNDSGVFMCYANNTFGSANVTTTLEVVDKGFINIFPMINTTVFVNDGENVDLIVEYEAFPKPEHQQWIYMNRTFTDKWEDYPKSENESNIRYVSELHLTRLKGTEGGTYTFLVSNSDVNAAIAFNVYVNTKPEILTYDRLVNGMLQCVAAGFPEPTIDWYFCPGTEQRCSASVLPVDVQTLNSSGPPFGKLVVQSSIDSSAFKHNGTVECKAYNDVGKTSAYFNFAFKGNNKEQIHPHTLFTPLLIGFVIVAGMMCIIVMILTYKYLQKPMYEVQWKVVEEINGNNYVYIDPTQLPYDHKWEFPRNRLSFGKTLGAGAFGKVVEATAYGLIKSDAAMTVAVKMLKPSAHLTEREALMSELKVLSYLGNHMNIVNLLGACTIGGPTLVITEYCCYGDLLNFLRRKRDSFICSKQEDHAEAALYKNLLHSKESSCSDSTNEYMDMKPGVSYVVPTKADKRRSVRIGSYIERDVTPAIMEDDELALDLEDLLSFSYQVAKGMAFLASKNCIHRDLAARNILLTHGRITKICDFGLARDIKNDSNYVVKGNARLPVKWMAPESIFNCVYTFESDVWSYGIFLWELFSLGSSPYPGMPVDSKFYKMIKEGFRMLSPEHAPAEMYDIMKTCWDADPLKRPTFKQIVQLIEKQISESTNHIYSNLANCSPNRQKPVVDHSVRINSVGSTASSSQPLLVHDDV
Description: (§1) In vitro kinase inhibitory ability was determined using HTScan MET Kinase Assay Kit, HTScan VEGF Receptor 2 Kinase Assay Kit, HTScan c-Kit Kinase Assay Kit, HTScan PDGF Receptor β Kinase Assay Kit and HTScan EGFR Kinase Assay Kit(purchased from Cell Signaling Technology, Inc. Danvers, MA, USA) by colorimetric ELISA assay according to the manufacturer’s instructions. Briefly, reaction cocktail containing recombinant human MET kinase or other kinases were incubated with various concentrations of tested compounds or DMSO (0.1%) for 5 min at room temperature, and then ATP/substrate peptide cocktail was added to the pre-incubated reaction cocktail. After incubation at room temperature for 30 min, the reaction was stopped and transferred to a 96-wellstreptavidin-coated plate, and incubated for 1 h at room temperature. Primary antibody (phosphorylated tyrosine monoclonal antibody (pTyr-100), 1:1000 in PBS/T with 1% bovine serum albumin (BSA)) was added into per well until the wells were washed thrice with PBS/T. After incubated at room temperature for 1 h, phosphorylation of the substrate was monitored with HRP-labeled anti-mouse IgG antibody (1:500 in PBS/T with 1% BSA), followed by a chromogenic reaction. Finally, the kinase assay was detected at 450 nm with microplate reader. The reaction processed with only DMSO (0.1%) served as a vehicle control. […] The kinase assay was performed thrice independently.

[2] = system: Hep-G2 (human liver cancer); assay: Cell proliferative assay (MTT), Hep-G2; assay type: cell-based; conditions: Homo sapiens, HepG2, Hep-G2 cells, read-out: Proliferative Inhibition (IC50, µM) Hep-G2
Description: (§2) The anti-proliferative activities of synthesized compounds against HeLa, Hep-G2 and MCF-7 cells were evaluated by MTT assay. HeLa cells were grown to log phase in RPMI 1640 medium supplemented with 10% fetal bovine serum. Hep-G2 and MCF-7 cells were grown to log phase in DMEM medium supplemented with 10% fetal bovine serum. After diluting to […] with the complete medium, 100 µL of the obtained cell suspension was added to each well of 96-well culture plates. The subsequent incubation was permitted at 37 °C, 5% CO2 atmosphere for 48 h before the anti-proliferative assessments. Tested samples at pre-set concentrations were added to 6 wells. Before the anti-proliferative assessments, 20 µL of PBS containing 2.5 mg∙mL^−1 of MTT was added to each well. Four h later, 100 µL extraction solution (DMSO) was added to each well and the optical density was measured at a wavelength of 570 nm on an ELISA microplate reader.

[3] = system: MCF-7 (human breast cancer); assay: Cell proliferative assay (MTT), MCF-7; assay type: cell-based; conditions: Homo sapiens, MCF7, MTT assay, MCF-7 cells; read-out: Proliferative Inhibition (IC50, µM) MCF-7
Description: as §2

[4] = target: T2, PDGFR-b (Homo sapiens, UniProt P09619); assay: In vitro kinase assay (HTScan PDGF Receptor β Kinase Assay Kit); assay type: biochemical; conditions: for IC50: ATP 10 µM, read-out: Enzyme, IC50, µM PDGFR-b; for selectivity against PDGFR-b: relative to c-MET
T2 construct: purchased Cell Signaling Technology, Inc
T2 sequence (P09619 33-1106): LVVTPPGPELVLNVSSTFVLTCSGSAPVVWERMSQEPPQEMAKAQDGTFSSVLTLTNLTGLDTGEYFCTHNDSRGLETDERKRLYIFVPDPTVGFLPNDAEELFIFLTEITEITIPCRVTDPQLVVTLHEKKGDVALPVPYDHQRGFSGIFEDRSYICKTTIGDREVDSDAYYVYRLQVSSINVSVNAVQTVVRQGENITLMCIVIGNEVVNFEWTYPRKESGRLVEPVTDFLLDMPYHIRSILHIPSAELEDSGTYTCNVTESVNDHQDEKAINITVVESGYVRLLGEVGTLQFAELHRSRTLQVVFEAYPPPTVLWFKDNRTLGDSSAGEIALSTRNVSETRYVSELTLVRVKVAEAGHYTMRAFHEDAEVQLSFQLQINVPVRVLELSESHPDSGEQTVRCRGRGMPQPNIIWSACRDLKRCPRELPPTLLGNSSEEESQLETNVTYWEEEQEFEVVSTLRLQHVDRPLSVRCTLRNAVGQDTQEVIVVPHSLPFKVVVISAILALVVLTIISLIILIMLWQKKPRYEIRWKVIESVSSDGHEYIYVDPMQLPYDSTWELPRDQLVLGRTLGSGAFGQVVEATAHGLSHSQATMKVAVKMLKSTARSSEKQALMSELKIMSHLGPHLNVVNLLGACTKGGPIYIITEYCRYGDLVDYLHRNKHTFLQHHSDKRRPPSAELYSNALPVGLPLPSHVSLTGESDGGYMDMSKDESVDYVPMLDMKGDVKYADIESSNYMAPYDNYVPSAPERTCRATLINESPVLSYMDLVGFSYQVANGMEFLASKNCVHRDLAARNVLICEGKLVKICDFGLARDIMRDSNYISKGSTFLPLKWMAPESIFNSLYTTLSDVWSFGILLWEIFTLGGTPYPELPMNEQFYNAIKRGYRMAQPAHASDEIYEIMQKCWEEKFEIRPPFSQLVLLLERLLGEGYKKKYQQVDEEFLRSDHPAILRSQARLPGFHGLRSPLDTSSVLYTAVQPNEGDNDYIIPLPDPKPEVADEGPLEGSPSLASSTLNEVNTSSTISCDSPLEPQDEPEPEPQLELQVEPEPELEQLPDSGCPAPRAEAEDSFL
Description: as §1

[5] = target: T3, VEGFR-2 (Homo sapiens, UniProt P35968); assay: In vitro kinase assay (HTScan VEGF Receptor 2 Kinase Assay Kit); assay type: biochemical; conditions: ATP 10 µM; read-out: Enzyme, IC50, µM VEGFR-2
T3 construct: purchased Cell Signaling Technology, Inc
Description: In vitro kinase inhibitory ability was determined using HTScan MET Kinase Assay Kit, HTScan VEGF Receptor 2 Kinase Assay Kit, HTScan c-Kit Kinase Assay Kit, HTScan PDGF Receptor β Kinase Assay Kit and HTScan EGFR Kinase Assay Kit(purchased from Cell Signaling Technology, Inc. Danvers, MA, USA) by colorimetric ELISA assay according to the manufacturer’s instructions. Briefly, reaction cocktail containing recombinant human MET kinase or other kinases were incubated with various concentrations of tested compounds or DMSO (0.1%) for 5 min at room temperature, and then ATP/substrate peptide cocktail was added to the pre-incubated reaction cocktail. After incubation at room temperature for 30 min, the reaction was stopped and transferred to a 96-wellstreptavidin-coated plate, and incubated for 1 h at room temperature. Primary antibody (phosphorylated tyrosine monoclonal antibody (pTyr-100), 1:1000 in PBS/T with 1% bovine serum albumin (BSA)) was added into per well until the wells were washed thrice with PBS/T. After incubated at room temperature for 1 h, phosphorylation of the substrate was monitored with HRP-labeled anti-mouse IgG antibody (1:500 in PBS/T with 1% BSA), followed by a chromogenic reaction. Finally, the kinase assay was detected at 450 nm with microplate reader. The reaction processed with only DMSO (0.1%) served as a vehicle control. […]

[6] = target: T4, c-MET (Homo sapiens, UniProt P08581); assay: In vitro kinase assay (HTScan MET Kinase Assay Kit, colorimetric ELISA); assay type: biochemical; conditions: ATP 10 µM; three independent determinations; read-out: Enzymatic Inhibition (IC50, µM) c-MET
T4 construct: purchased Cell Signaling Technology, Inc
T4 sequence (P08581 25-1390): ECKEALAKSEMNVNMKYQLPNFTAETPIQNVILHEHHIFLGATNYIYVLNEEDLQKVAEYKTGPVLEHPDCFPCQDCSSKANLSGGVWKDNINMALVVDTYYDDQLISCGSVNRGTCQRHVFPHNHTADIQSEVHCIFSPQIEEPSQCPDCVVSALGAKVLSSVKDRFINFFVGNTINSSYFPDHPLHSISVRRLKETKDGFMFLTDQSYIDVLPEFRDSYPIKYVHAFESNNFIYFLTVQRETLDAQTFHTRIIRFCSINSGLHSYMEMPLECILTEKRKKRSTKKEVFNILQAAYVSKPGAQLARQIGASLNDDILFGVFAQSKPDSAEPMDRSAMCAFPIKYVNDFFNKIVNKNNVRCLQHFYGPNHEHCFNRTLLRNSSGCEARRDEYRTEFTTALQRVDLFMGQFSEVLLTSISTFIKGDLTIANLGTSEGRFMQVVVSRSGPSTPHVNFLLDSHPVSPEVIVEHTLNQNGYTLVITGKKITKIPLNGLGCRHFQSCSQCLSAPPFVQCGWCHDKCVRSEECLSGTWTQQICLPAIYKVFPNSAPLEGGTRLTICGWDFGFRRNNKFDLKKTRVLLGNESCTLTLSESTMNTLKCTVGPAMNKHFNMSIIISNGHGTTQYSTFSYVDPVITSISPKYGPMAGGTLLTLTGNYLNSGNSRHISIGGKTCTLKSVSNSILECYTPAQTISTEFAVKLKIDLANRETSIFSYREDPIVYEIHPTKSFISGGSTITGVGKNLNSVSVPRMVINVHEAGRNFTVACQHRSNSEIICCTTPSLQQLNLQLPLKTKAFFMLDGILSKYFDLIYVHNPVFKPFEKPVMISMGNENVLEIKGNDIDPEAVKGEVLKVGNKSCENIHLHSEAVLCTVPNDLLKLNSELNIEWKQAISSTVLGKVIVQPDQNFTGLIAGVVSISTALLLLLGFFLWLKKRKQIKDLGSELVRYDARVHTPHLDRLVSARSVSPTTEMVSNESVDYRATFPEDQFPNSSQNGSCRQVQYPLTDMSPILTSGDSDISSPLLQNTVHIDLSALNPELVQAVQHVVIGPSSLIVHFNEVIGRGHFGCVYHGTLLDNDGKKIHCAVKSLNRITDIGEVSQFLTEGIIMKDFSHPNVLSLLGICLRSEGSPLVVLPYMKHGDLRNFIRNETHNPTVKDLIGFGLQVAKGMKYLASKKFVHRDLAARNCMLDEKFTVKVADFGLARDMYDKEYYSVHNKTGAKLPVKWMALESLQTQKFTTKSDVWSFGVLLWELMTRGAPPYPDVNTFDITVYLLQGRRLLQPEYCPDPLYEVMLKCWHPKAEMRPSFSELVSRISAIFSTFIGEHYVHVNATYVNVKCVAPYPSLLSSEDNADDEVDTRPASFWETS
Description: as §1

[7] = target: T5, EGFR (Homo sapiens, UniProt P00533); assay: In vitro kinase assay (HTScan EGFR Kinase Assay Kit); assay type: biochemical; conditions: for IC50: ATP 10 µM, read-out: Enzyme, IC50, µM EGFR; for selectivity against EGFR: relative to c-MET
T5 construct: purchased Cell Signaling Technology, Inc
T5 sequence (P00533 25-1210): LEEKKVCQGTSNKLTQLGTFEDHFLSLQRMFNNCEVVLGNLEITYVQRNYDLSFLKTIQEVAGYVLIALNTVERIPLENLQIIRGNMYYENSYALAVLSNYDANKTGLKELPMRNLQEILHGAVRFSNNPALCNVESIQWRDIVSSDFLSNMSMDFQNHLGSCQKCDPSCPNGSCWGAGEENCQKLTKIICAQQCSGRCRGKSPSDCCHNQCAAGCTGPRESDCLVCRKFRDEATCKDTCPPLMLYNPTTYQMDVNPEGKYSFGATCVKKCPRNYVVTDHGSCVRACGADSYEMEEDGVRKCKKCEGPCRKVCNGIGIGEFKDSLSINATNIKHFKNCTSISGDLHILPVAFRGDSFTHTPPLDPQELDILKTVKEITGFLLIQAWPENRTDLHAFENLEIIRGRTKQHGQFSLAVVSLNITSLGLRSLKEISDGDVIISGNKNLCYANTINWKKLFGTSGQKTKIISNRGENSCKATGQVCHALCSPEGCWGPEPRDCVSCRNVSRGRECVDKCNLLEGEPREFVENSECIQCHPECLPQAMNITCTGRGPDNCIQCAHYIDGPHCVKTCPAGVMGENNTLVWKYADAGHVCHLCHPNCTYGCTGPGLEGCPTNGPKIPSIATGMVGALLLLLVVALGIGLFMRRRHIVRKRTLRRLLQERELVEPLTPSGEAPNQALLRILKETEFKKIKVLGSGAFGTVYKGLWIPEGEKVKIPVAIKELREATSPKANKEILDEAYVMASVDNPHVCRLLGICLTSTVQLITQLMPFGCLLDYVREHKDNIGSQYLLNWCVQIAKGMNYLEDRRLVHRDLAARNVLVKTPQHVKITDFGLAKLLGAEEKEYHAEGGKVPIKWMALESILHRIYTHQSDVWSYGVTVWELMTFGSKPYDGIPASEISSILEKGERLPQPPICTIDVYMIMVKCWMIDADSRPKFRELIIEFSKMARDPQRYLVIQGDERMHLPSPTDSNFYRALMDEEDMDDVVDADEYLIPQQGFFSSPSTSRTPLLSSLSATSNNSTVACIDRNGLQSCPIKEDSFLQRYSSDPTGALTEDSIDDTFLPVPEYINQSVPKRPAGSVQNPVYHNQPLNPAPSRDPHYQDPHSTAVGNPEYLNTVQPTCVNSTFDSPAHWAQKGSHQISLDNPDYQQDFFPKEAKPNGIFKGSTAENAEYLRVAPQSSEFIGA
Description: as §1

[8] = system: HeLa (human cervical carcinoma); assay: Cell proliferative assay (MTT), HeLa; assay type: cell-based; conditions: Homo sapiens, HeLa, HeLa cells, read-out: Proliferative Inhibition (IC50, µM) HeLa
Description: as §2

[9] = system: c-MET; parameters: method as in PMID 19896842, PMID 24485123, PMID 23041435; conditions: cell-free assays; cited from earlier work

| IC50 [1] | selectivity against c-Kit [1] | IC50 [2] | IC50 [3] | IC50 [4] | selectivity against PDGFR-b [4] | IC50 [5] | melting point | IC50 [6] | IC50 [7] | selectivity against EGFR [7] | IC50 [8] | SMILES | IC50 [9] |
| --- | --- | --- | --- | --- | --- | --- | --- | --- | --- | --- | --- | --- | --- |
| 4.3 ± 0.11 µM | 215 fold | 12.8 ± 0.28 µM | 1.2 ± 0.21 µM | > 10 µM | > 500 fold | 0.1 ± 0.02 µM | 180 to 182 °C | 0.02 µM | > 10 µM | > 500 fold | 4.7 ± 0.11 µM | COc1cc2ncnc(Oc3ccc(NC(=O)C4(C(=O)Nc5ccc(F)cc5)CC4)cc3F)c2cc1OC [Compound 13b] |  |
| 5.2 ± 0.09 µM | 104 fold | 1.7 ± 0.04 µM | 2.8 ± 0.23 µM | 7.2 ± 0.1 µM | 144 fold | 0.25 ± 0.02 µM | 171 to 173 °C | 0.05 ± 0.01 µM | > 10 µM | > 200 fold | 4.6 ± 0.03 µM | CC(C)(C)OC(=O)N1CCc2c(sc3ncnc(Oc4ccc(NC(=O)C5(C(=O)Nc6ccc(F)cc6)CC5)cc4F)c23)C1 [Compound 13h, tert-butyl-4-{2-fluoro-4-(1-((4-fluorophenyl)carbamoyl)cyclopropanecarboxamido)phenoxy}-5,6-dihydropyrido(4’,3’:4,5)thieno(2,3-d)pyrimidine-7(8H)-carboxylate] |  |

| SMILES | IC50 [1] | selectivity against c-Kit [1] | IC50 [2] | IC50 [3] | IC50 [4] | selectivity against PDGFR-b [4] | IC50 [5] | melting point | IC50 [6] | IC50 [7] | selectivity against EGFR [7] | IC50 [8] | IC50 [9] |
| --- | --- | --- | --- | --- | --- | --- | --- | --- | --- | --- | --- | --- | --- |
| COc1cc2nccc(Oc3ccc(NC(=O)C4(C(=O)Nc5ccc(F)cc5)CC4)cc3)c2cc1OC [XL184, Cabozantinib, reference compound] |  |  | 49.1 ± 0.25 µM |  |  |  |  |  |  |  |  |  | 0.0013 µM |
